Patent publication US6500866B1, “1-(adamantyl)amidines and their use in the treatment of conditions generally associated with abnormalities in glutamatergic transmission” (Vernalis Research Limited, priority 1997, dated 2002)
Counter-ions that a name gives are not always drawn.

Legend:
[1] = molecular target: PCP site of the NMDA receptor (cortical); test: [3H]-MK-801 binding, PCP site of NMDA receptor, rat cortical membranes; settings: rat cortex membranes, [3H]-MK-801 5 nM, 10 μM glutamate, 10 μM glycine
Excerpt: (§1) The NMDA receptor contains several distinct binding domains that can regulate opening of the cationic channel. The phencyclidine (PCP) site of the NMDA receptor can be radiolabeled with [^3H]-(+)-5-methyl-10,11-dihydro-5H-dibenzo[a,d]cyclohepten-5,10-imine hydrogen maleate, [^3H-MK-801]. The following describes the procedure for determining the affinity of compounds for the PCP site in rat cortical or cerebellar membranes.
(§2) Frozen rat cortex or cerebellum, homogenized in 10 volumes of ice cold 0.32 M. sucrose is centrifuged at 1,000 g for 12 min and the supernatant stored on ice whilst the pellet was resuspended, rehomogenized and recentrifuged twice more. The three final supernatants were pooled and centrifuged at 30,000 g for 40 min at 4° C. to yield P2 pellets. These were resuspended in ice-cold distilled water, and centrifuged at 30,000 g for 50 min at 4° C. Following three further washes in distilled water, the P2 pellets were stored at −20° C. for at least 18 h. On the day of the assay, membrane pellets were thawed at room temperature, resuspended in ice-cold distilled water and centrifuged at 30,000 g for 20 min. The pellets were resuspended in 50 mM tris-HCl (pH:7.4) and recentrifuged twice more before being resuspended in tris-HCl for immediate use in the assay. Binding assays were performed at equilibrium in a total volume of 200 μl, containing, [^3H]-MK-801 (5 nM final conc.), 10 μM glutamate, 10 μM glycine, 160 μl of membrane preparation and additional drugs where appropriate. Non-specific binding was determined using MK-801 (10 μM). The assay was incubated for 120 min at room temperature. The incubation was terminated by rapid filtration through Whatman GF/B filters (pre-soaked in 0.1% PEI solution). The assay tubes and filters were washed five times with 1 ml of ice cold assay buffer. The filters were placed in poly-Q mini vials with approximately 5 ml of scintillation fluid. The vials are then shaken and left for at least 8 hours before being counted on a liquid scintillation counter. To determine the free ligand concentration 3 aliquots (20 μl) of the [^3H]-MK-801 working solution were also counted. Concentration response data for drugs was analysed using a 4 parameter equation fitted by non linear regression. This yielded the half maximally effective drug concentration (IC50) and Hill coefficient.

[2] = molecular target: T1, PCP site of the NMDA receptor (cerebellar); test: [3H]-MK-801 binding, PCP site of NMDA receptor, rat cerebellar membranes; settings: rat cerebellum membranes, [3H]-MK-801 5 nM, 10 μM glutamate, 10 μM glycine
T1 construct: IC50(μM) Cerebellum; other: rat cerebellum membranes, [3H]-MK-801 5 nM, 10 μM glutamate, 10 μM glycine
Excerpt: as §1, §2

[3] = system: PCP site of the NMDA receptor (cerebellar); test: as above; settings: IC50 cortex / IC50 cerebellum
Excerpt: as §1, §2

Compound | melting point | IC50 [1] [µM] | IC50 [2] [µM] | Ratio of cortical to cerebellar binding affinity [3]
CN(C)CCNC(=N)C12CC3CC(CC(C3)C1)C2 (as salt: hydrochloride) [Example 10, N-(2-Dimethylaminoethyl)-1-adamantanecarboximidamide dihydrochloride] | 293 °C (dec.) |  |  | 
Cl.N=C(N)C(Cc1ccccc1)C12CC3CC(CC(C3)C1)C2 (centres unmarked) [Example 16, 2-(1-Adamantyl)-3-phenylpropanimidamide hydrochloride] |  | 52 | 27 | 1.9
C=CCNC(=N)C12CC3CC(CC(C3)C1)C2 (as salt: hydrochloride) [Example 7, N-Allyl-1-adamantanecarboximidamide hydrochloride] | 252 to 254 °C |  |  | 
Cl.N=C(N)C12CC3CC(C1)CC(c1ccc([N+](=O)[O-])cc1)(C3)C2 [Example 14, 3-(4-Nitrophenyl)-1-adamantanecarboximidamide hydrochloride] |  | 406 | 234 | 1.7
CC12CC3CC(C)(C1)CC(CCC(=N)N)(C3)C2 (as salt: hydrochloride) [Example 11, 3-(3,5-Dimethyl-1-adamantyl)propanimidamide hydrochloride] | 246 to 248 °C |  |  | 
CC12CC3(C)CC(C)(C1)CC(C(=N)N)(C2)C3.Cl [Example 13, 3,5,7-Trimethyl-1-adamantanecarboximidamide hydrochloride] |  | 43 | 18 | 2.4
N=C(N)C12CC3CC(CC(Cl)(C3)C1)C2 (as salt: hydrochloride) [Example 2, 3-Chloro-1-adamantanecarboximidamide hydrochloride] | 215 to 216 °C |  |  | 
N=C(N)CC(c1ccccc1)C12CC3CC(CC(C3)C1)C2 (centres unmarked) [Example 18, 3-(1-Adamantyl)-3-phenylpropanimidamide hydrochloride] |  | 27 |  | 
CC12CC3CC(C1)CC(C(=N)N)(C3)C2.Cl [Example 12, 3-Methyl-1-adamantanecarboximidamide hydrochloride] |  | 96 | 36 | 2.7
CC12CC3CC(C)(C1)CC(CC(=N)N)(C3)C2 [Example 5, 3,5-Dimethyl-1-adamantaneacetiniidamide hydrochloride] |  | 82 | 56 | 1.5
CCNC(=N)C12CC3CC(CC(C3)C1)C2 (as salt: hydrochloride) [Example 8, N-Ethyl-1-adamantanecarboximidainide hydrochloride] | 315 °C (dec.) |  |  | 
N=C(N)C12CC3CC(CC(Br)(C3)C1)C2 (as salt: hydrochloride) [Example 3, 3-Bromo-1-adamantanecarboximidamide hydrochloride] | 221 to 223 °C |  |  | 
C=CCNC(=N)C12CC3CC(C)(CC(C)(C3)C1)C2 (as salt: hydrochloride) [Example 6, N-Allyl-3,5-dimethyl-1-adamantanecarboximidamide hydrochloride] | 222 to 224 °C |  |  | 
CC12CC3CC(C)(C1)CC(CC(=N)N)(C3)C2 (as salt: hydrochloride) [Example 5, 3,5-Dimethyl-1-adamantaneacetiniidamide hydrochloride] | 252 to 253 °C |  |  | 
N=C(NCc1ccccc1)C12CC3CC(CC(C3)C1)C2 (as salt: hydrochloride) [Example 9, N-Benzyl-1-adamantanecarboximidamide hydrochloride] | 242 to 244 °C |  |  | 
CCC12CC3CC(C1)CC(C(=N)N)(C3)C2 (as salt: hydrochloride) [Example 4, 3-Ethyl-1-adamantanecarboximidamide hydrochloride] | 210 to 212 °C |  |  | 
